In article PMC11435065, “Inhibition of P-Glycoprotein Asymmetrically Alters the In Vivo Exposure Profile of SGC003F: A Novel Guanylate Cyclase Stimulator” (Pharmaceuticals, 2024):
Read-outs that look alike come from different tables or passages of the source.

Molecular target: T1, P-gp (human MDR1) (Homo sapiens, UniProt P08183)
T1 construct: expressed in transfected cells; host or cells: LLC-PK1 cells stably expressing human MDR1 (gift of Professor Qingcheng Mao, University of Washington)
Assay: Bidirectional transport across LLC-PK1-MDR1 monolayer cells with or without tariquidar
Format: in vitro ADME
Conditions: for efflux ratio at 2 h, 2 µM: human, read-out: ER value (efflux ratio)
Text: Cell lines: LLC-PK1 cells with stable-expressing human MDR1 and mock-transfected with empty vector (LLC-PK1-MOCK) were gifted by the lab of Professor Qingcheng Mao (University of Washington, Seattle, WA, USA). The culture medium of the LLC-PK1-MOCK and LLC-PK1-MDR1 cells was 1640 medium containing 10% FBS and 100 U/mL PS. The Caco-2 cells were purchased from ADCC. The Caco-2 cell culture medium was DMEM high-glucose medium (containing 10% FBS, 1% non-essential amino acid solution, 100 U/mL PS). Both cell lines were cultured at 37 °C in a cell incubator containing 5% CO2.
LLC-PK1-MDR1, LLC-PK1-MOCK, and Caco-2 cells were seeded in 24-well Transwell cell plates at optimized densities. The medium was changed every other day for the LLC-PK1 cells and every day for the Caco-2 cells. The LLC-PK1 cells were cultured continuously for 4–7 days, while the Caco-2 cells were cultured continuously for 28–35 days in preparation for transport experiments. Prior to the experiment, TEER (transepithelial electrical resistance) values were measured using a cell resistance meter. For electrical measurements, two electrodes were used, with one electrode placed in the upper compartment and the other in the lower compartment and the electrodes were separated by the cellular monolayer. The measurement procedure included measuring the blank resistance (Rblank) of the semipermeable membrane only (without cells) and measuring the resistance across the cell layer on the semipermeable membrane (Rtotal). TEER values were achieved by calculating as TEER = (Rtotal − Rblank) × Marea in the unit of Ω·cm^2. The monolayer integrity was guaranteed by determining the TEER before and after the bidirectional transport experiments. […]
The apparent permeability rate value (Papp) of the monolayer cells was calculated according to Equation (5) Papp = (dQ/dt)/(A × C0)(5) where dQ/dt is the transport rate (µmol·s^−1); A is the insert surface area (0.33 cm^2); C0 is the initial concentration of the compound (µM).
Efflux rate (ER) was calculated according to Equation (6):ER = Papp B-A/PappA-B(6)

T1 sequence (P08183 whole entry): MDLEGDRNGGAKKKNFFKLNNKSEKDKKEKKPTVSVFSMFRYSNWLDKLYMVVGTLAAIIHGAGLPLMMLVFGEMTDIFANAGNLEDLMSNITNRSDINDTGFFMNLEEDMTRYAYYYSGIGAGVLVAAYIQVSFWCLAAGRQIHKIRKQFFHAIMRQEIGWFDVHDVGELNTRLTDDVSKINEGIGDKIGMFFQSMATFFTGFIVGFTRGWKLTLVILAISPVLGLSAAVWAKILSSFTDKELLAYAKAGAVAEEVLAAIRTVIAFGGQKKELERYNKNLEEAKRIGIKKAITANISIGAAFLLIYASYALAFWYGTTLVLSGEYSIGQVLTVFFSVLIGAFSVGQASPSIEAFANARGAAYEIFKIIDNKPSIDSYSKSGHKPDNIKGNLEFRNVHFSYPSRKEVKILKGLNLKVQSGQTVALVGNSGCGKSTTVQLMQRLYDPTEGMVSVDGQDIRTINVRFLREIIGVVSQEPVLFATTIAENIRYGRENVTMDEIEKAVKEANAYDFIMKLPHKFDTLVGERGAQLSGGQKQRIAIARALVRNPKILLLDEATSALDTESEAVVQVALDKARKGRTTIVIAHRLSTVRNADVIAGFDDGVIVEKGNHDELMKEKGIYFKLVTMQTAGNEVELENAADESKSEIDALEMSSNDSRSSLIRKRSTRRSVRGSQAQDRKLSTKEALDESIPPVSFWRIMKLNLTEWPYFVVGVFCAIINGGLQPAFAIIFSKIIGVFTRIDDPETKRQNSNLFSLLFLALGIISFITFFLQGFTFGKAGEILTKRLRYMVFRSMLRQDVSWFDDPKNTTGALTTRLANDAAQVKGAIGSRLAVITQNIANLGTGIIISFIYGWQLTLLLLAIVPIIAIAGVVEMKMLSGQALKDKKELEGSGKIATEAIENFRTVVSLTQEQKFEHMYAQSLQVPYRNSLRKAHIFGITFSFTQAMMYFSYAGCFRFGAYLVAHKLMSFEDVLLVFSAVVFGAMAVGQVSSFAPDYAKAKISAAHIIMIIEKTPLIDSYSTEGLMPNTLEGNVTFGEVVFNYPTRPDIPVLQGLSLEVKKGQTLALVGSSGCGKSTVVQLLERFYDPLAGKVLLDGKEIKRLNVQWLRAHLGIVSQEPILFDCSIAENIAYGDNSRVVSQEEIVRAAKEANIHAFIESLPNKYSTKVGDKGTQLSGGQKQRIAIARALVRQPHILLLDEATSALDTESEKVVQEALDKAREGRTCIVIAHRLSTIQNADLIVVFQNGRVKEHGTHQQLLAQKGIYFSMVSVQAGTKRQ

COC(=O)Nc1c(N)nc(-c2nn(Cc3sccc3F)c3ncc(F)cc23)nc1N [SGC003F]
P-gp substrate assessment (LLC-PK1-MDR1 vs LLC-PK1-MOCK, with/without tariquidar): substrate for P-gp | efflux ratio at 2 h, 2 µM (LLC-PK1, LLC-PK1-MDR1 cells, without tariquidar): 6.71 | efflux ratio at 2 h, 2 µM (LLC-PK1, with tariquidar 5 µM, LLC-PK1-MDR1 cells, with tariquidar 5 µM): 1.28
